Data: patent US5434295A (priority 1994, dated 1995)

Columns and labels:
Rat brain NMDA receptors = test: Blockade of NMDA response in Xenopus oocytes injected with rat brain RNA; assay type: biochemical
From the text: Blockade of NMDA-induced voltage changes in Xenopus oocytes: Frog oocytes can be injected with genetic material from various species and organs, resulting in the expression of the various molecules encoded by this material in the oocyte. Injection of rat brain RNA provides active NMDA receptors on the ooctye surface. Application of NMDA results in changes in the electrical activity recorded from the oocytes. Various NMDA antagonists block the NMDA-induced changes in electrical activity and their potency and dose dependence in this system indicate their potency and mode of action as NMDA antagonists.
The oocyte is the most widely used system for studying the molecular, biophysical and pharmacological properties of expressed voltage- or transmitter-operated ion channels. This giant cell offers several advantages for this type of studies. It can be readily used for two-electrode voltage clamp studies, translates injected mRNA from different sources and functionally expresses the translated proteins, and it is also readily amenable for intracellular micron injections. Importantly, the recordings of neurotransmitter- or voltage-induced currents in a single oocyte are extremely stable and can performed repeatedly for 2-3 hours; this allows the performance of a full dose-response relation in single oocytes.
Rat brain NMDA receptors were expressed in Xenopus oocytes injected with total rat brain RNA. Dascal and Lotan. The conditions for injection culture and electrical recording from oocytes were as described by Dascal and Lotan (in: Methods in Molecular Biology, Longstaff and Revest, eds. Vol. 13, Chapter 13, Humana Press, N.J., 1992).
Briefly, female Xenopus were anesthetized by immersion in water containing 0.15% tricaine methanesulfonate and a small incision was made in the lower abdomen. Ovary fragments were removed into ND-96.
The oocytes were defolliculated by the collagenase treatment in order to remove the follicle cell layer. Defolliculated oocytes were injected with total rat brain RNA and incubated for 2-4 days at 22° C. in sterile NDE-96 solution. ND-96 solution contains (in mM): NaCl - 96, KCl - 2, CaCl2 - 1.8, Hepes - 5 (pH=7.4-7.6). NDE-96 contains in addition, 2.5 mM sodium pyruvate, 100 unit/ml penicillin, 100 μg/ml streptomycin. A single oocyte was placed in a 1 ml bath constantly superfused with ND-96 solution at room temperature. The cell was impaled with two microelectrodes and held at membrane potential of -60 mV using voltage clamp circuit.
RNA was extracted from the brain of 14-day old rat brain. Each oocyte was injected with 50 nl total RNA (4-8 mg/ml in water, stored at -80° C. in […] aliquots).
NMDA receptors were activated by application of NMDA with glycine in Mg-free ND-96 solution. It was shown previously and also observed in this study that the entry of calcium ions through the NMDA receptor-channel evokes a Ca-dependent Cl^- current which appeared as an early inward current peak preceding and overlapping the actual NMDA response and hindering a quantitative pharmacological study of NMDA antagonists. Experimental conditions were therefore worked out aimed at eliminating the Cl^- current. The best protocol employed the use of Ca-free, Ba-containing solution, avoiding repetitive application of antagonists, as well as other conditions including optimal perfusion rate and optimal intervals between repetitive NMDA applications.
Several NMDA receptor blockers were tested. These compounds have […] and have to be dissolved in 100% dimethyl sulfoxide (DMSO) and diluted for use in ND-96 that contained 1% DMSO. Therefore, the effect of 1% DMSO on the response to 10^-4 M NMDA and 5×10^-6 M glycine was examined. DMSO had no effect on NMDA response in three different cells.
Eight putative NMDA antagonists of the HU group, including 270, 271 and 259 were tested for anti-NMDA activity at a glutamate receptor. […]

NMDA toxicity in mice = test: Prevention of NMDA neurotoxicity in mice (neurological scores); assay type: in vivo, mice (Balb/C); conditions: for maximum improvement of neurological scores: NMDA 60 mg/kg s.c., i.p. or i.v. pretreatment; for neurological scores/symptoms after NMDA toxicity: pretreated mice
From the text: Blockade of NMDA toxicity in mice: Subcutaneous injection of NMDA in mice results in a dose-dependent increase in the number, severity and duration of several neurological symptoms, culminating in death at the higher dose range. The symptoms include tail flicks, circling, tremor and convulsions. The ability of various compounds, when administered to mice prior to NMDA, to reduce the number and severity of these symptoms is a considered a measure of their potency in preventing NMDA behavioral toxicity in vivo.
Test drugs were administered intraperitoneally at the stipulated doses in a solution of MCT oil. Each point represents the mean scores of eight mice treated with the drug compared to the same number of control animals receiving the vehicle alone.
Test compounds were administered at a standard dose of 10 mg/kg either intraperitoneally (in MCT oil) or intravenously (in a submicronized emulsion).
Bicyclic compounds of the present invention were tested for their ability to block NMDA toxicity in mice. Balb/C mice received NMDA by subcutaneous injection at a dose of 60 mg/kg which was determined to be the LD20 dose of this substance. Thirty minutes prior to injection of the neurotoxin the animals received either (a) an intravenous injection of the test drug formulated in submicronized emulsion as described in Example 11); (b) an intraperitoneal injection of the test drug dissolved in MCT oil; (c) or the appropriate vehicle alone (control groups). The improvement rate afforded by the test drug was defined as the difference between scores of animals receiving the formulated drug and those receiving the vehicle alone. The doses tested for HU-254, HU-259 and HU-260 ranged from 5 to 30 mg/kg.
At least 6-8 mice were included per test group. The materials were tested in a masked study to preclude bias of the observer of clinical symptoms.
The behavioral scoring method (tabulated above) was used as the basic quantitative procedure for evaluating the level of NMDA or kainic acid neurotoxicity in mice. The neurological clinical status of each animal was calculated by totalling the scores of all signs that were evident throughout the study. Duration of symptoms was also taken into account.
If duration of a neurological system is up to 30 seconds, the score is s-1. Duration between 0.5-3.0 mins, the score is s. Duration longer than 3 mins, the score is s+1.

| SMILES | % inhibition of NMDA (Rat brain NMDA receptors; 1 μM) [%] | maximum improvement of neurological scores (NMDA toxicity in mice) | neurological scores/symptoms after NMDA toxicity (NMDA toxicity in mice) | % inhibition of NMDA (Rat brain NMDA receptors; 10 μM) [%] | selectivity NMDA over AMPA/kainate receptors (Rat brain NMDA receptors) | mode of NMDA antagonism (Rat brain NMDA receptors; Lineweaver-Burke analysis) | concentration at which inhibitory activity was first apparent (Rat brain NMDA receptors; NMDA response) [nM] |
| --- | --- | --- | --- | --- | --- | --- | --- |
| CCCCCCC(C)(C)c1cc(OC(C)=O)c([C@H]2C=C(C(=O)N(CC)CC)[C@H]3C[C@@H]2C3(C)C)c(OC(C)=O)c1 [HU-270] | 20 | 30-40% | decreased neurological symptoms | – | – | – | – |
| CCCCCCC(C)(C)c1cc(OC(C)=O)c([C@H]2C=C(C(=O)NCCO)[C@H]3C[C@@H]2C3(C)C)c(OC(C)=O)c1 [HU-271] | 16 | 30-40% | decreased neurological symptoms | 20 | – | – | – |
| CCCCCCC(C)(C)c1cc(OC(C)=O)c([C@H]2C=C(C(=O)O)[C@H]3C[C@@H]2C3(C)C)c(OC(C)=O)c1 [(+)-4-[4-DMH-2,6 diacetoxyphenyl]-2-carboxy-6,6-dimethylbicyclo[3.1.1]hept-2-en] | 35 | 30-40% | improvement in neurological scores | 41 | selective for the NMDA over AMPA/kainate receptors | non-competitive NMDA antagonists | 10 |
